Results: ChEMBL document CHEMBL1134391, “Design, synthesis, and structural analysis of influenza neuraminidase inhibitors containing pyrrolidine cores” (J Med Chem, 2001)

Columns and labels:
influenza virus b [1] = assay: Inhibitory activity was determined against Neuraminidase B/Memphis at 0.5 mM concentration
influenza virus b [2] = assay: Inhibitory activity was determined against Neuraminidase B/Memphis at 1 mM concentration
Neuraminidase = Neuraminidase (Influenza B virus (strain B/Lee/1940), UniProt P03474); assay: Inhibitory activity was determined against Neuraminidase B/Memphis
Sequence of Neuraminidase (P03474 whole entry): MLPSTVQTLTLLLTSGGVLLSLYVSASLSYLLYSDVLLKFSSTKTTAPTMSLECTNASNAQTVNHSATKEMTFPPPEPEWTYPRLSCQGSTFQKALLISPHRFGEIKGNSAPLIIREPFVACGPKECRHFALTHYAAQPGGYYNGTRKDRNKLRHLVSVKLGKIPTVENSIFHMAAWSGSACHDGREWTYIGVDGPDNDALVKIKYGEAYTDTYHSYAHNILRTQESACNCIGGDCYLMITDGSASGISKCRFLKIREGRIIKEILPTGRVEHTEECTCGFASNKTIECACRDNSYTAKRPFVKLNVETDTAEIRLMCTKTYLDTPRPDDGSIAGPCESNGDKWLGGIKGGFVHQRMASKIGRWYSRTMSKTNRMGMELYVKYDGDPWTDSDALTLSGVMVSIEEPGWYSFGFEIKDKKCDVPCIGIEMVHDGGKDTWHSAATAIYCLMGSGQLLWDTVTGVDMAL

CCN(C(=O)N1C[C@@H](C(=O)O)[C@@H](N)[C@@H]1CNS(C)(=O)=O)C(C)C
inhibition (influenza virus b [1]): 38%

CCC(=O)NC[C@H]1[C@H](N)[C@H](C(=O)O)CN1C(=O)N(CC)C(C)C
inhibition (influenza virus b [2]): 26%

CCN(C(=O)N1C[C@@H](C(=O)O)[C@@H](N)[C@@H]1CNC(=O)C(F)(F)F)C(C)C [A-192558]
IC50 (Neuraminidase): 8 µM

CCN(C(=O)N1C[C@@H](C(=O)O)[C@@H](N)[C@@H]1CNC(C)=O)C(C)C
IC50 (Neuraminidase): 340 µM
